Experimental findings from patent publication US20100216255A1, “METHODS OF DETERMINING ACTIVE LEVELS OF DRUGS IN FLUID SAMPLES” (CLINICAL REFERENCE LABORATORY, priority 2001, published 2010) are described below.

Molecules are shown by their SMILES.

Angiotensin Converting Enzyme (ACE), sequence (P12821 30-1232 limits assumed): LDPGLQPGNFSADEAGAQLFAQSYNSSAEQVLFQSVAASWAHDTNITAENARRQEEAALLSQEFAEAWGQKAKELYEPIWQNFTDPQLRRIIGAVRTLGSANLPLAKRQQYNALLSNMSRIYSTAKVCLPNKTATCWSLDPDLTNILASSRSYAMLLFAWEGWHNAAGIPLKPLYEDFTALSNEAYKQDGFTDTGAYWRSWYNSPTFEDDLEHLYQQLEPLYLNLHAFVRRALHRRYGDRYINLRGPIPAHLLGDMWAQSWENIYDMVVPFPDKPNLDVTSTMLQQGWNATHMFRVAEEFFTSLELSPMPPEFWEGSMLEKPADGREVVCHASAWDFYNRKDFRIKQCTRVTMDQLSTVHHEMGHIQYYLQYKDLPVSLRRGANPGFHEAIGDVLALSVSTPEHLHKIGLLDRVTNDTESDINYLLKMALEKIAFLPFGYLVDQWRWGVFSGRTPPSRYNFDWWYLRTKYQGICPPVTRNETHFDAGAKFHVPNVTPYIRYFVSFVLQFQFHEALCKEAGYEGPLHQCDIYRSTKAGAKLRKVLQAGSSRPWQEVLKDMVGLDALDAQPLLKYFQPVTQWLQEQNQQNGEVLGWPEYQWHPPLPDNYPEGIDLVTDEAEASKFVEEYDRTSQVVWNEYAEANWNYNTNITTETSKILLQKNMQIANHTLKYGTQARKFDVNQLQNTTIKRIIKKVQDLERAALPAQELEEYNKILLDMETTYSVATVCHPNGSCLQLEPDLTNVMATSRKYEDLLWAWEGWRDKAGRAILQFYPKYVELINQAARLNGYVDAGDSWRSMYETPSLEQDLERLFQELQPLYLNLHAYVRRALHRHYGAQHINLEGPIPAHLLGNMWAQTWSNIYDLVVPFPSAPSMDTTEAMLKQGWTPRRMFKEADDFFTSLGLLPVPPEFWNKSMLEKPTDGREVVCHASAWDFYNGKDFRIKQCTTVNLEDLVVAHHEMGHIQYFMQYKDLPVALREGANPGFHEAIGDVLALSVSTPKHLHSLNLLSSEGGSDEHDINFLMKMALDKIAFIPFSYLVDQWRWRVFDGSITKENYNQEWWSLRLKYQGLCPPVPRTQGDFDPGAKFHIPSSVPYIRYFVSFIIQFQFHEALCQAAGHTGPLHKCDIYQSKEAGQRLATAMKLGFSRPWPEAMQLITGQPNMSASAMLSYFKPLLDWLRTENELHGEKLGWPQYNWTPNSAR

One assay addresses Angiotensin Converting Enzyme (ACE) (Homo sapiens, UniProt P12821). In words: ACE enzyme inhibition assay on samples from individuals reporting an ACE-inhibiting drug. The note with it: urine samples from individuals self-reporting the drug; count out of the LISTED number.
Method: The bottle was then inverted a few times and then put on a shaker (Clay Adams CA6000 Centrifuge Becton Dickinson Microbiology System Sparks, Md.) at speed setting 2 for ten minutes. […] The pH was adjusted to 8.2 with 6 N hydrochloric acid.
Using the above-described reagents, a Hamilton MicroLab AT pipetting station was used to transfer 100 μl of the ACE serum in Tris buffer to each well of a microtiter plate. Next, 25 μl of the cut-off level calibrator, controls and unknown were added to their corresponding well locations with the Hamilton MicroLab AT, as shown in Table 1.
Five different patient samples were then added to five other wells. The microtiter plate was shaker on Titer Plate Shaker (Lab Line Instruments, Inc. Melrose, Ill.) at a setting of 2 for at least five minutes before pipetting 100 μl of the substrate FAPGG into each well. Next, solution was mixed by shaking the microtiter plate on the shaker at a speed setting of 2 for one minute. The microtiter plate was placed in the Spectra Mac Plus (Molecular Devices, Sunnyvale, Calif.) plate reader and the optical density of each sample at 340 nanoMeter was determined. The microtiter plate was then incubated at 37° C. for two hours. The optical density was again determined on the plate reader. This two-hour reading of optical density was then subtracted from the initial reading of optical density and termed the “delta OD 340.”
Fluid samples were obtained from individuals reporting that they were currently taking an ACE-inhibiting drug. […] The medications reported by the patients included eight different medications of the ACE-inhibiting drug family. Each individual reported taking only one specific ACE-inhibiting drug. Thus, this example tests the ability of the assay to identify individuals on ACE-inhibiting drugs without prior knowledge of the specific drug being taken.
As to `CCOC(=O)[C@H](CCc1ccccc1)N[C@H]1CCc2ccccc2N(CC(=O)O)C1=O` [BENAZEPRIL, benazepril], the “DETECTED (samples testing positive for ACE-inhibiting drugs)” value amounted to 14.
On the same count and under the same terms, as for `CCOC(=O)[C@H](CCc1ccccc1)N[C@@H](C)C(=O)N1CCC[C@H]1C(=O)O` [ENALAPRIL, enalapril], the figure is 5.
`NCCCC[C@H](N[C@@H](CCc1ccccc1)C(=O)O)C(=O)N1CCC[C@H]1C(=O)O` [LISINOPRIL, lisinopril]: the “DETECTED (samples testing positive for ACE-inhibiting drugs)” value was 22.
Still for that read-out and setting: as for `CCOC(=O)[C@H](CCc1ccccc1)N[C@@H](C)C(=O)N1Cc2cc(OC)c(OC)cc2C[C@H]1C(=O)O` [MOEXIPRIL, moexipril], the figure is 3; as for `CCOC(=O)[C@H](CCc1ccccc1)N[C@@H](C)C(=O)N1Cc2ccccc2C[C@H]1C(=O)O` [QUINAPRIL, quinapril], 15; as for `CCOC(=O)[C@H](CCc1ccccc1)N[C@@H](C)C(=O)N1[C@H](C(=O)O)C[C@@H]2CCC[C@@H]21` [RAMIPRIL, ramipril], 2.

For another assay, the target named is T1, Beta-1-adrenergic receptor (Homo sapiens, UniProt P08588).
T1 construct: purchased Sigma Chemical RBIB-143
T1 sequence (P08588 whole entry, species assumed): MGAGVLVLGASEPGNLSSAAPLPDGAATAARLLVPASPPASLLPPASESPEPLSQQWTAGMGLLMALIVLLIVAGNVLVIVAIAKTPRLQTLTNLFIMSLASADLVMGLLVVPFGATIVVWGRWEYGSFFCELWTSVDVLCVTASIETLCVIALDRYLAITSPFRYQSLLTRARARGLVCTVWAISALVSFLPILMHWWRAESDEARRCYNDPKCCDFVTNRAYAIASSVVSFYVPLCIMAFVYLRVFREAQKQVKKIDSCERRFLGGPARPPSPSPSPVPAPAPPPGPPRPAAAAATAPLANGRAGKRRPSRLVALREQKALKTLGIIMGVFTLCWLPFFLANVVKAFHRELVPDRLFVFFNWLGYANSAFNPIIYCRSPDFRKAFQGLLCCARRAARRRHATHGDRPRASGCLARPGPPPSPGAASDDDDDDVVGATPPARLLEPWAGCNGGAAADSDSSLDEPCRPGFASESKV
In words: Cell receptor assay, competition with radiolabeled 125-iodocyanopindolol. The format is binding. The note with it: cut-off control, 20 ug/ml Atenolol in drug negative urine, diluted 1 to 10 before assay; 2 h at room temperature; counts inversely related to unlabeled ligand.
Method: This example provides a cell receptor assay for B1 adrenergic receptors and tests the accuracy of the assay. Patient urine that may or may not contain target ligand and a radiolabeled competitive ligand are added to a test tube containing a limited concentration of cell membrane containing beta-1-adrenergic receptors. The unlabeled ligand in the patient's urine competes with the labeled ligand for the receptor sites during an incubation period. Following incubation the tubes are centrifuged to precipitate the cell membrane-receptors. The solution containing unbound ligand is decanted and the radioactivity retained in the tubes is detected in a gamma counter. The amount of radioactivity bound is indirectly proportional to the concentration of unlabeled ligand present in the patient's urine. […] Adjust the pH to 7.4 with concentrated hydrochloric acid and fill to volume with deionized water. […] Thaw the stock solution of membrane and dilute to 30 milliliter with Tris working buffer. […] The working solution of radiolabel is prepared by diluting the stock 1 to 30 with Tris working buffer. […] Atenolol, propranolol and metoprolol were diluted with HPLC grade ethyl alcohol (Aldrich Chemical Company Milwaukee, Wis.) to produce a 1.0 mg/ml stock solution for each drug. […] The total radioactivity was detected on Packard Cobra II Auto Gamma counter (Packard Instrument Company Downers Grove, Ill.).
As for `CC(C)NCC(O)COc1ccc(CC(N)=O)cc1` (stereo not shown) [Atenolol], the “Counts per Minute” value was determined as 5117.
